{"source": "ChEMBL document CHEMBL3739357", "about": "“Replacement of cardiotoxic aminopiperidine linker with piperazine moiety reduces cardiotoxicity? Mycobacterium tuberculosis novel bacterial topoisomerase inhibitors” (Bioorg Med Chem, 2016)", "key": {"[1]": {"target": "DNA gyrase subunit A/DNA gyrase subunit B (Mycobacterium tuberculosis (strain ATCC 25618 / H37Rv), UniProt P9WG45+P9WG47)", "sequence (P9WG45 whole entry)": "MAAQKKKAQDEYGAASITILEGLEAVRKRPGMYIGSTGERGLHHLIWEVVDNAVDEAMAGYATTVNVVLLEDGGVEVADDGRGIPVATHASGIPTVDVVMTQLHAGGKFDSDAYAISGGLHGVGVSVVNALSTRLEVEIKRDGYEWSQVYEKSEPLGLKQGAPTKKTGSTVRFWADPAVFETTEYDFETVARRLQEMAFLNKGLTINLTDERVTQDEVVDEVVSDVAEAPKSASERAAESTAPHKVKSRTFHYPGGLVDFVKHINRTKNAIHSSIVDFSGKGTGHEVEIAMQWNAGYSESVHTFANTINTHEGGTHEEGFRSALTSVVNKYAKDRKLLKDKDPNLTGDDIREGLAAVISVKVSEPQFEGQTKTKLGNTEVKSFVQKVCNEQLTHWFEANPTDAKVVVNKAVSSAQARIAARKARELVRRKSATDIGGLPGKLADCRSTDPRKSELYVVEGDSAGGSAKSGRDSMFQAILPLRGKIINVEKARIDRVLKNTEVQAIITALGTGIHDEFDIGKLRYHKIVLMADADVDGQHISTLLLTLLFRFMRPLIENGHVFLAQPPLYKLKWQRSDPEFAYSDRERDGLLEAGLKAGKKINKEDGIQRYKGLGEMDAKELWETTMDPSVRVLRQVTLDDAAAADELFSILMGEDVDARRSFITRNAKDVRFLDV", "sequence (P9WG47 whole entry)": "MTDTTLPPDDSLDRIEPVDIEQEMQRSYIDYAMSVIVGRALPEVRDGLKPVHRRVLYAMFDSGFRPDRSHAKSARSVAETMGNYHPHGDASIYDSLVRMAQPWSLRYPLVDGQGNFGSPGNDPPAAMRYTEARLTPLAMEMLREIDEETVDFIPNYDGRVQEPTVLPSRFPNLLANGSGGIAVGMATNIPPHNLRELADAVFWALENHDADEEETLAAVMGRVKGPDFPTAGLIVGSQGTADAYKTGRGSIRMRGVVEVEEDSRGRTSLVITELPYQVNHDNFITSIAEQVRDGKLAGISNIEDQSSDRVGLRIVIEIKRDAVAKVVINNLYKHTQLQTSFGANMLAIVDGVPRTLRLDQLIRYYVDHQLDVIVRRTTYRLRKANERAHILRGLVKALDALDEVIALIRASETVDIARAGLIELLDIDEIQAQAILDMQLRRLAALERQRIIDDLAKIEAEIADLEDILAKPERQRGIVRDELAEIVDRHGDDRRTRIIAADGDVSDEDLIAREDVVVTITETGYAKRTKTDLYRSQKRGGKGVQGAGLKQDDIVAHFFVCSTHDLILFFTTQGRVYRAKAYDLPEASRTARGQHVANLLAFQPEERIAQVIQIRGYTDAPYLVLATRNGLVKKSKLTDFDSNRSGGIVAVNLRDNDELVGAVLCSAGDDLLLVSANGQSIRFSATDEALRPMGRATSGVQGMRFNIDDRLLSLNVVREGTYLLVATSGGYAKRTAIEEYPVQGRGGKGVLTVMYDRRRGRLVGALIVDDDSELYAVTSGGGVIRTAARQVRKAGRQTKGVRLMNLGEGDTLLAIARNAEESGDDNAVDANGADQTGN", "experiment": "Inhibition of Mycobacterium tuberculosis DNA gyrase assessed as inhibition of supercoiling activity using relaxed pBR322 plasmid as substrate after 30 mins"}, "[2]": {"system": "Mycobacterium tuberculosis", "experiment": "Antimycobacterial activity against Mycobacterium tuberculosis H37Rv after 7 days by alamar blue assay", "assay_type": "functional", "settings": "168 h"}, "[3]": {"experiment": "Cytotoxicity against mouse RAW264.7 cells at 50 uM after 48 hrs by MTT assay", "assay_type": "cell-based", "settings": "read-out: INH"}, "Danio rerio [4]": {"organism": "Danio rerio", "experiment": "Toxicity in zebrafish embryo assessed as heart rate at 30 uM after 4 hrs", "assay_type": "organism-based", "settings": "in vivo"}, "Danio rerio [5]": {"organism": "Danio rerio", "experiment": "Toxicity in zebrafish embryo assessed as artrio-ventricular ratio at 30 uM after 4 hrs", "assay_type": "organism-based", "settings": "in vivo"}, "Danio rerio [6]": {"organism": "Danio rerio", "experiment": "Toxicity in zebrafish embryo assessed as artrio-ventricular ratio at 10 uM after 4 hrs", "assay_type": "organism-based", "settings": "in vivo"}, "Danio rerio [7]": {"organism": "Danio rerio", "experiment": "Toxicity in zebrafish embryo assessed as heart rate at 10 uM after 4 hrs", "assay_type": "organism-based", "settings": "in vivo"}}, "data": [{"smiles": "COc1ccc(CNC(=S)N2CCN(CCn3c(=O)ccc4ncc(OC)cc43)CC2)cc1", "values": [{"measurement": "IC50", "setting": "[1]", "result": 15.5, "unit": "µM"}, {"measurement": "MIC", "setting": "[2]", "result": 26.7, "unit": "µM"}, {"measurement": "cytotoxicity at 48 h, 50 µM", "setting": "[3]", "result": 17.1, "unit": "%"}]}, {"smiles": "COc1cnc2ccc(=O)n(CCN3CCN(Cc4ccc([N+](=O)[O-])cc4)CC3)c2c1", "values": [{"measurement": "IC50", "setting": "[1]", "result": 0.98, "unit": "µM"}, {"measurement": "MIC", "setting": "[2]", "result": 7.38, "unit": "µM"}, {"measurement": "cytotoxicity at 48 h, 50 µM", "setting": "[3]", "result": 37.6, "unit": "%"}]}, {"smiles": "COc1cnc2ccc(=O)n(CCN3CCN(C(=S)Nc4ccc(C)cc4)CC3)c2c1", "values": [{"measurement": "IC50", "setting": "[1]", "result": 11.5, "unit": "µM"}, {"measurement": "MIC", "setting": "[2]", "result": 10.7, "unit": "µM"}, {"measurement": "cytotoxicity at 48 h, 50 µM", "setting": "[3]", "result": 26.8, "unit": "%"}]}, {"smiles": "COc1ccc(CNC(=O)N2CCN(CCn3c(=O)ccc4ncc(OC)cc43)CC2)cc1", "values": [{"measurement": "IC50", "setting": "[1]", "result": 14.6, "unit": "µM"}, {"measurement": "MIC", "setting": "[2]", "result": 27.7, "unit": "µM"}, {"measurement": "cytotoxicity at 48 h, 50 µM", "setting": "[3]", "result": 37.6, "unit": "%"}]}, {"smiles": "COc1cnc2ccc(=O)n(CCN3CCN(C(=O)Nc4ccc(F)cc4)CC3)c2c1", "values": [{"measurement": "IC50", "setting": "[1]", "result": 11.6, "unit": "µM"}, {"measurement": "MIC", "setting": "[2]", "result": 14.7, "unit": "µM"}, {"measurement": "cytotoxicity at 48 h, 50 µM", "setting": "[3]", "result": 25.2, "unit": "%"}]}, {"smiles": "COc1cnc2ccc(=O)n(CCN3CCN(C(=O)Nc4ccc(C(C)=O)cc4)CC3)c2c1", "values": [{"measurement": "IC50", "setting": "[1]", "result": 19.4, "unit": "µM"}, {"measurement": "MIC", "setting": "[2]", "result": 26.9, "unit": "µM"}, {"measurement": "cytotoxicity at 48 h, 50 µM", "setting": "[3]", "result": 18.6, "unit": "%"}]}, {"smiles": "COc1cnc2ccc(=O)n(CCN3CCN(Cc4ccc(Cl)cc4)CC3)c2c1", "values": [{"measurement": "IC50", "setting": "[1]", "result": 0.81, "unit": "µM"}, {"measurement": "MIC", "setting": "[2]", "result": 10.1, "unit": "µM"}, {"measurement": "cytotoxicity at 48 h, 50 µM", "setting": "[3]", "result": 26.5, "unit": "%"}]}, {"smiles": "COc1cnc2ccc(=O)n(CCN3CCN(C(=S)Nc4ccc(C(C)=O)cc4)CC3)c2c1", "values": [{"measurement": "IC50", "setting": "[1]", "result": 16.4, "unit": "µM"}, {"measurement": "MIC", "setting": "[2]", "result": 10.7, "unit": "µM"}, {"measurement": "cytotoxicity at 48 h, 50 µM", "setting": "[3]", "result": 3.16, "unit": "%"}]}, {"smiles": "COc1cnc2ccc(=O)n(CCN3CCN(C(=S)Nc4ccccc4)CC3)c2c1", "values": [{"measurement": "IC50", "setting": "[1]", "result": 15.4, "unit": "µM"}, {"measurement": "MIC", "setting": "[2]", "result": 29.5, "unit": "µM"}, {"measurement": "cytotoxicity at 48 h, 50 µM", "setting": "[3]", "result": 32.6, "unit": "%"}]}, {"smiles": "COc1cnc2ccc(=O)n(CCN3CCN(C(=O)Nc4ccc([N+](=O)[O-])cc4)CC3)c2c1", "values": [{"measurement": "Activity", "setting": "Danio rerio [4]", "result": "Toxic"}, {"measurement": "IC50", "setting": "[1]", "result": 0.29, "unit": "µM"}, {"measurement": "Activity", "setting": "Danio rerio [5]", "result": "Toxic"}, {"measurement": "Activity", "setting": "Danio rerio [6]", "result": "Toxic"}, {"measurement": "MIC", "setting": "[2]", "result": 3.45, "unit": "µM"}, {"measurement": "Activity", "setting": "Danio rerio [7]", "result": "Toxic"}, {"measurement": "cytotoxicity at 48 h, 50 µM", "setting": "[3]", "result": 5.08, "unit": "%"}]}, {"smiles": "COc1cnc2ccc(=O)n(CCN3CCN(C(=O)Nc4ccc(C)cc4)CC3)c2c1", "values": [{"measurement": "IC50", "setting": "[1]", "result": 2.68, "unit": "µM"}, {"measurement": "MIC", "setting": "[2]", "result": 7.41, "unit": "µM"}, {"measurement": "cytotoxicity at 48 h, 50 µM", "setting": "[3]", "result": 32.3, "unit": "%"}]}, {"smiles": "COc1cnc2ccc(=O)n(CCN3CCN(C(=S)NCc4ccc(Cl)cc4)CC3)c2c1", "values": [{"measurement": "IC50", "setting": "[1]", "result": 0.95, "unit": "µM"}, {"measurement": "MIC", "setting": "[2]", "result": 4.31, "unit": "µM"}, {"measurement": "cytotoxicity at 48 h, 50 µM", "setting": "[3]", "result": 24.9, "unit": "%"}]}, {"smiles": "COc1cnc2ccc(=O)n(CCN3CCN(C(=O)NCc4ccc(Cl)cc4)CC3)c2c1", "values": [{"measurement": "IC50", "setting": "[1]", "result": 0.92, "unit": "µM"}, {"measurement": "MIC", "setting": "[2]", "result": 6.6, "unit": "µM"}, {"measurement": "cytotoxicity at 48 h, 50 µM", "setting": "[3]", "result": 24.6, "unit": "%"}]}, {"smiles": "COc1cnc2ccc(=O)n(CCN3CCN(C(=O)Nc4ccccc4)CC3)c2c1", "values": [{"measurement": "IC50", "setting": "[1]", "result": 13.5, "unit": "µM"}, {"measurement": "MIC", "setting": "[2]", "result": 30.7, "unit": "µM"}, {"measurement": "cytotoxicity at 48 h, 50 µM", "setting": "[3]", "result": 9.54, "unit": "%"}]}, {"smiles": "COc1cnc2ccc(=O)n(CCN3CCN(C(=S)Nc4ccc([N+](=O)[O-])cc4)CC3)c2c1", "values": [{"measurement": "IC50", "setting": "[1]", "result": 18.5, "unit": "µM"}, {"measurement": "MIC", "setting": "[2]", "result": 26.7, "unit": "µM"}, {"measurement": "cytotoxicity at 48 h, 50 µM", "setting": "[3]", "result": 17.3, "unit": "%"}]}, {"smiles": "COc1cnc2ccc(=O)n(CCN3CCN(Cc4ccc(Br)cc4)CC3)c2c1", "values": [{"measurement": "IC50", "setting": "[1]", "result": 6.44, "unit": "µM"}, {"measurement": "MIC", "setting": "[2]", "result": 13.7, "unit": "µM"}, {"measurement": "cytotoxicity at 48 h, 50 µM", "setting": "[3]", "result": 2.15, "unit": "%"}]}, {"smiles": "COc1cnc2ccc(=O)n(CCN3CCN(C(=S)Nc4ccc(Cl)cc4)CC3)c2c1", "values": [{"measurement": "IC50", "setting": "[1]", "result": 12.8, "unit": "µM"}, {"measurement": "MIC", "setting": "[2]", "result": 13.6, "unit": "µM"}, {"measurement": "cytotoxicity at 48 h, 50 µM", "setting": "[3]", "result": 6.59, "unit": "%"}]}, {"smiles": "COc1cnc2ccc(=O)n(CCN3CCN(C(=S)Nc4ccc(F)cc4)CC3)c2c1", "values": [{"measurement": "IC50", "setting": "[1]", "result": 14.7, "unit": "µM"}, {"measurement": "MIC", "setting": "[2]", "result": 14.2, "unit": "µM"}, {"measurement": "cytotoxicity at 48 h, 50 µM", "setting": "[3]", "result": 21.6, "unit": "%"}]}, {"smiles": "COc1cnc2ccc(=O)n(CCN3CCN(C(=O)Nc4ccc(Br)cc4)CC3)c2c1", "values": [{"measurement": "IC50", "setting": "[1]", "result": 0.75, "unit": "µM"}, {"measurement": "MIC", "setting": "[2]", "result": 3.21, "unit": "µM"}, {"measurement": "cytotoxicity at 48 h, 50 µM", "setting": "[3]", "result": 24.4, "unit": "%"}]}, {"smiles": "COc1cnc2ccc(=O)n(CCN3CCN(C(=S)Nc4ccc(Br)cc4)CC3)c2c1", "values": [{"measurement": "IC50", "setting": "[1]", "result": 0.49, "unit": "µM"}, {"measurement": "MIC", "setting": "[2]", "result": 3.8, "unit": "µM"}, {"measurement": "cytotoxicity at 48 h, 50 µM", "setting": "[3]", "result": 1.06, "unit": "%"}]}, {"smiles": "COc1ccc(CN2CCN(CCn3c(=O)ccc4ncc(OC)cc43)CC2)cc1", "values": [{"measurement": "IC50", "setting": "[1]", "result": 1.34, "unit": "µM"}, {"measurement": "MIC", "setting": "[2]", "result": 3.82, "unit": "µM"}, {"measurement": "cytotoxicity at 48 h, 50 µM", "setting": "[3]", "result": 15.9, "unit": "%"}]}, {"smiles": "COc1cnc2ccc(=O)n(CCN3CCN(Cc4ccccc4)CC3)c2c1", "values": [{"measurement": "IC50", "setting": "[1]", "result": 0.94, "unit": "µM"}, {"measurement": "MIC", "setting": "[2]", "result": 4.12, "unit": "µM"}, {"measurement": "cytotoxicity at 48 h, 50 µM", "setting": "[3]", "result": 15, "unit": "%"}]}, {"smiles": "COc1cnc2ccc(=O)n(CCN3CCN(C(=O)Nc4ccc(Cl)cc4)CC3)c2c1", "values": [{"measurement": "Activity", "setting": "Danio rerio [4]", "result": "Toxic"}, {"measurement": "IC50", "setting": "[1]", "result": 0.32, "unit": "µM"}, {"measurement": "Activity", "setting": "Danio rerio [5]", "result": "Toxic"}, {"measurement": "MIC", "setting": "[2]", "result": 7.06, "unit": "µM"}, {"measurement": "cytotoxicity at 48 h, 50 µM", "setting": "[3]", "result": 27, "unit": "%"}]}, {"smiles": "COc1cnc2ccc(=O)n(CCN3CCN(Cc4ccc(F)cc4)CC3)c2c1", "values": [{"measurement": "IC50", "setting": "[1]", "result": 0.91, "unit": "µM"}, {"measurement": "MIC", "setting": "[2]", "result": 15, "unit": "µM"}, {"measurement": "cytotoxicity at 48 h, 50 µM", "setting": "[3]", "result": 26.4, "unit": "%"}]}, {"smiles": "CC[C@@H](CO)NCCN[C@@H](CC)CO", "note": "[ETHAMBUTOL]", "values": [{"measurement": "MIC", "setting": "[2]", "result": 9.84, "unit": "µM"}]}, {"smiles": "COc1c(N2C[C@@H]3CCCN[C@@H]3C2)c(F)cc2c(=O)c(C(=O)O)cn(C3CC3)c12", "note": "[MOXIFLOXACIN]", "values": [{"measurement": "MIC", "setting": "[2]", "result": 2.4, "unit": "µM"}]}, {"smiles": "CO[C@@H]1[C@@H](OC(N)=O)[C@@H](O)[C@H](Oc2ccc3c(O)c(NC(=O)c4ccc(O)c(CC=C(C)C)c4)c(=O)oc3c2C)OC1(C)C", "note": "[NOVOBIOCIN]", "values": [{"measurement": "MIC", "setting": "[2]", "result": "> 200", "unit": "µM"}, {"measurement": "cytotoxicity at 48 h, 50 µM", "setting": "[3]", "result": 19.3, "unit": "%"}]}]}
